Data reported in ChEMBL document CHEMBL5352416, “Benzo[b]thiophene-2-carboxamides as novel opioid receptor agonists with potent analgesic effect and reduced constipation” (Eur J Med Chem, 2022).
Activity calls are given as the source filed them. The rule behind the calls is not given here.

Assays:
Mu-type opioid receptor [1] = target: T1, Mu-type opioid receptor (Homo sapiens, UniProt P35372); test: Agonist activity at human mu opioid receptor expressed in CHO-K1 cells coexpressing Galpha15 assessed as increase in fluorescence of [ca2+]i measured for 1.52 sec by FLIPR calcium assay; type: functional, cell-based
Mu-type opioid receptor [2] = target: T1, Mu-type opioid receptor; test: Agonist activity at human mu opioid receptor expressed in CHO-K1 cells coexpressing Galpha15 assessed as increase in fluorescence of [ca2+]i by measuring maximum efficacy measured for 1.52 sec by FLIPR calcium assay relative to control; type: functional, cell-based
Mus musculus [3] = test: Antinociceptive activity in thermal stimulated C57BL/6 mouse at 4.4 mg/kg, sc measured at 30 to 180 mins by tail flick test; type: functional, organism-based; settings: time 30-180 min
Mus musculus [4] = test: Antinociceptive activity in thermal stimulated C57BL/6 mouse assessed as tail flick latency at 4.4 mg/kg, sc measured at 30 to 60 mins by tail flick test; type: functional, organism-based; settings: time 30-60 min
Mus musculus [5] = test: Antinociceptive activity in CFA-induced mechanical allodynia C57BL/6 mouse model at 4.4 mg/kg, sc administered twice daily pretreated with CFA for 2 days followed by compound addition and measured at 3 to 7 days by von frey test; type: functional, organism-based; settings: time 3-7 day
Mus musculus [6] = test: Antinociceptive activity in thermal stimulated C57BL/6 mouse assessed as drug tolerance at 126.4 to 252.8 microg/kg, sc administered twice per day for 5 days and measured immediately by tail flick test; type: functional, organism-based; settings: dose 126.4-252.8 µg/kg, time 5.0 day
Mus musculus [7] = test: Induction of motivational effect in C57BL/6 mouse assessed as increase in reward behaviour at 2.5 mg/kg, sc administered for 4 days and measured on day 6 by CPP analysis; type: functional, organism-based; settings: time 6.0 day
Mus musculus [8] = test: Antinociceptive activity in thermal stimulated wild type C57BL/6 mouse assessed as tail flick latency at 126.4 to 252.8 microg/kg measured at 30 to 60 mins by tail flick test; type: functional, organism-based; settings: dose 126.4-252.8 µg/kg, time 30-60 min
Mu-type opioid receptor [9] = target: T1, Mu-type opioid receptor; test: Displacement of [3H]-Diprenorphine from human MOR receptor expressed in CHO-K1 cells assessed as inhibition constant measured for 1 hr by liquid scintillation counter analysis; type: cell-based
[10] = target: T2, Delta-type opioid receptor (Homo sapiens, UniProt P41143); test: Displacement of [3H]-Diprenorphine from human DOR receptor expressed in CHO-K1 cells assessed as inhibition constant measured for 1 hr by liquid scintillation counter analysis; type: cell-based
Nociceptin receptor [11] = target: T3, Nociceptin receptor (Homo sapiens, UniProt P41146); test: Displacement of [3H]-Nociceptin from human NOP receptor expressed in CHO-K1 cells assessed as inhibition constant measured for 1 hr by liquid scintillation counter analysis; type: cell-based
Mu-type opioid receptor [12] = target: T1, Mu-type opioid receptor; test: Agonist activity at human mu opioid receptor expressed in CHO-K1 cells assessed as decrease in intracellular cAMP level measured after 1 hr by LANCE ultra cAMP assay; type: functional, cell-based
Nociceptin receptor [13] = target: T3, Nociceptin receptor; test: Agonist activity at human NOP receptor expressed in CHO-K1 cells assessed as decrease in intracellular cAMP level measured after 1 hr by LANCE ultra cAMP assay; type: functional, cell-based
[14] = target: T2, Delta-type opioid receptor; test: Agonist activity at human DOR receptor expressed in CHO-K1 cells assessed as decrease in intracellular cAMP level measured after 1 hr by LANCE ultra cAMP assay; type: functional, cell-based
Mu-type opioid receptor [15] = target: T1, Mu-type opioid receptor; test: Agonist activity at human mu opioid receptor expressed in CHO-K1 cells assessed as […] beta-arrestin 2 recruitment measured after 1.5 hrs by PathHunter assay; type: functional, cell-based
Nociceptin receptor [16] = target: T3, Nociceptin receptor; test: Agonist activity at human NOP receptor expressed in CHO-K1 cells assessed as […] beta-arrestin 2 recruitment measured after 1.5 hrs by PathHunter assay; type: functional, cell-based
[17] = target: T2, Delta-type opioid receptor; test: Agonist activity at human DOR receptor expressed in CHO-K1 cells assessed as […] beta-arrestin 2 recruitment measured after 1.5 hrs by PathHunter assay; type: functional, cell-based
Nociceptin receptor [18] = target: T3, Nociceptin receptor; test: Potency index, ratio of Nociceptin EC50 to test compound EC50 for agonist activity at human NOP receptor expressed in CHO-K1 cells assessed as […] beta-arrestin 2 recruitment measured after 1.5 hrs by PathHunter assay; type: functional, cell-based
[19] = target: T2, Delta-type opioid receptor; test: Potency index, ratio of DADLE EC50 to test compound EC50 for agonist activity at human DOR receptor expressed in CHO-K1 cells assessed as […] beta-arrestin 2 recruitment measured after 1.5 hrs by PathHunter assay; type: functional, cell-based
Mu-type opioid receptor [20] = target: T1, Mu-type opioid receptor; test: Agonist activity at human mu opioid receptor expressed in CHO-K1 cells assessed as decrease in intracellular cAMP level at 0.5 uM in presence of naltrexone; type: functional, cell-based; settings: filed as agonist
Nociceptin receptor [21] = target: T3, Nociceptin receptor; test: Agonist activity at human NOP receptor expressed in CHO-K1 cells assessed as decrease in intracellular cAMP level at 0.5 uM in presence of BAN ORL 24; type: functional, cell-based
[22] = target: T2, Delta-type opioid receptor; test: Agonist activity at human DOR receptor expressed in CHO-K1 cells assessed as decrease in intracellular cAMP level at 0.5 uM in presence of naltrindole; type: functional, cell-based
[23] = Drug concentration in C57BL/6 mouse plasma at 2 mg/kg, sc measured for 5 min by ICP-MS analysis; type: ADME, organism-based
[24] = Drug concentration in C57BL/6 mouse plasma at 2 mg/kg, sc measured for 60 min by ICP-MS analysis; type: ADME, organism-based
[25] = Drug concentration in C57BL/6 mouse brain at 2 mg/kg, sc measured for 5 min by ICP-MS analysis; type: ADME, organism-based; settings: read-out: Ct
[26] = Drug concentration in C57BL/6 mouse brain at 2 mg/kg, sc measured for 60 min by ICP-MS analysis; type: ADME, organism-based; settings: read-out: Ct
[27] = Drug concentration in C57BL/6 mouse Intestine at 2 mg/kg, sc measured for 5 min by ICP-MS analysis; type: ADME, organism-based; settings: read-out: Ct
[28] = Drug concentration in C57BL/6 mouse Intestine at 2 mg/kg, sc measured for 60 min by ICP-MS analysis; type: ADME, organism-based; settings: read-out: Ct
Mus musculus [29] = test: Antinociceptive activity in thermal stimulated sc dosed C57BL/6 mouse measured at 30 to 180 mins by tail flick test; type: functional; settings: time 30-180 min
Mus musculus [30] = test: Antinociceptive activity in thermal stimulated C57BL/6 mouse at 126.4 to 252.8 microg/kg, sc measured at 30 to 180 mins by tail flick test; type: functional, organism-based; settings: dose 126.4-252.8 µg/kg, time 30-180 min
Mus musculus [31] = test: Antinociceptive activity in thermal stimulated C57BL/6 mouse assessed as tail flick latency at 126.4 to 252.8 microg/kg, sc measured at 30 to 60 mins by tail flick test; type: functional, organism-based; settings: dose 126.4-252.8 µg/kg, time 30-60 min
Mus musculus [32] = test: Antinociceptive activity in thermal stimulated MOR-knockout C57BL/6 mouse assessed as delay in flick tail at 252.8 microg/kg, sc measured after 30 mins by tail flick test; type: functional, organism-based; settings: dose 252.8 µg/kg
Mus musculus [33] = test: Antinociceptive activity in CFA-induced mechanical allodynia C57BL/6 mouse model at 126.4 to 252.8 microg/kg, sc pretreated with CFA for 2 days followed by compound addition and measured after 1 day by von frey test; type: functional, organism-based; settings: dose 126.4-252.8 µg/kg
Mus musculus [34] = test: Antinociceptive activity in CFA-induced mechanical allodynia MOR knockout C57BL/6 mouse model at 252.8 microg/kg, sc administered twice daily pretreated with CFA for 2 days followed by compound addition and measured at 3 to 7 days by von frey test; type: functional, organism-based; settings: dose 252.8 µg/kg, time 3-7 day
Mus musculus [35] = test: Antinociceptive activity in C57BL/6 mouse at 252.8 microg/kg, sc measured after 5 days in presence of BAN ORL 24 by tail flick test; type: functional, organism-based; settings: dose 252.8 µg/kg, time 5.0 day
Mus musculus [36] = test: Antinociceptive activity in C57BL/6 mouse at 252.8 microg/kg, sc measured after 5 days in presence of naltrindole by tail flick test; type: functional, organism-based; settings: dose 252.8 µg/kg, time 5.0 day
Mus musculus [37] = test: Antinociceptive activity in C57BL/6 mouse assessed as drug tolerance at 252.8 microg/kg, sc administered twice per day for 6 days and measured immediately by tail flick test; type: functional, organism-based; settings: dose 252.8 µg/kg, time 6.0 day
Mus musculus [38] = test: Antinociceptive activity in morphine tolerant C57BL/6 mouse at 252.8 microg/kg, sc administered twice per day for 6 days and measured after 30 min by tail flick test; type: functional, organism-based; settings: dose 252.8 µg/kg
Mus musculus [39] = test: Induction of motivational effect in C57BL/6 mouse assessed as increase in reward behaviour at 126.4 to 252.8 microg/kg, sc administered for 4 days and measured on day 6 by CPP analysis; type: functional, organism-based; settings: dose 126.4-252.8 µg/kg, time 6.0 day

T3 sequence (P41146 whole entry): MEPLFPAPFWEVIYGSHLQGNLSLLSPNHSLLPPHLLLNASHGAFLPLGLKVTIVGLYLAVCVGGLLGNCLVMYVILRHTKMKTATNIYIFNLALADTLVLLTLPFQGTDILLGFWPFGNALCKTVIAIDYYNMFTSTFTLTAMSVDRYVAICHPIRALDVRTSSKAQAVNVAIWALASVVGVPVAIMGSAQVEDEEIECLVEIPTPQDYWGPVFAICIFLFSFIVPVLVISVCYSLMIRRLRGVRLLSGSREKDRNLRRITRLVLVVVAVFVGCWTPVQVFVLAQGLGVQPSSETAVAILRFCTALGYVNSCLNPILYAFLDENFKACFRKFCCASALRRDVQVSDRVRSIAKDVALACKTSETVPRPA
T1 sequence (P35372 whole entry): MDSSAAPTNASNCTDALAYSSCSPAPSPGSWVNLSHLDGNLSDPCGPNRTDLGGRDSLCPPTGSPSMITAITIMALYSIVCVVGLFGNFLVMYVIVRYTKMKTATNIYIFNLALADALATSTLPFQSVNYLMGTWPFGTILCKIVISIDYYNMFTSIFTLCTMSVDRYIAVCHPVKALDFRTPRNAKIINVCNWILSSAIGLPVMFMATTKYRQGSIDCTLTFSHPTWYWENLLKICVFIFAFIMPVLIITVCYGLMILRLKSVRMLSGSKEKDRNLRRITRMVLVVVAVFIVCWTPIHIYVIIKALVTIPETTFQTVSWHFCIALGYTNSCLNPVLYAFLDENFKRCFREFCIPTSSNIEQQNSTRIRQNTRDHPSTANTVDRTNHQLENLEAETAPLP
T2 sequence (P41143 whole entry): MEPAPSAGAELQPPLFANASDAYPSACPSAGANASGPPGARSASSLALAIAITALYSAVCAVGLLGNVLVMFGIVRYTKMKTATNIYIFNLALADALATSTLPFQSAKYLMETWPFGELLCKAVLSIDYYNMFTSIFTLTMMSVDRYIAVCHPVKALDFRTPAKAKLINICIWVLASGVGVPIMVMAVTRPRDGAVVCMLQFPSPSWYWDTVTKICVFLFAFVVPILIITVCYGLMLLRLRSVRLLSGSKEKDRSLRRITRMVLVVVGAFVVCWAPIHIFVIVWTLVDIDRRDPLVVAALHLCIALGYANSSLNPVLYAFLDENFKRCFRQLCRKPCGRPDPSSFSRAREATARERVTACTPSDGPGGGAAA

Cc1ccccc1C(CNC(=O)c1cc2ccccc2s1)N(C)C (centres undefined)
EC50 (Mu-type opioid receptor [1]): 6480 nM | Emax (Mu-type opioid receptor [2]; filed as agonist): 90.8%

CN1CC[C@]23c4c5ccc(O)c4O[C@H]2[C@@H](O)C=C[C@H]3[C@H]1C5
Activity (Mus musculus [3]): Active | Activity (Mus musculus [4]): Active | Activity (Mus musculus [5]): inactive | Activity (Mus musculus [6]): Active | Activity (Mus musculus [7]): Active

CN(C)C(CNC(=O)c1cccs1)c1ccccc1Cl (centres undefined)
EC50 (Mu-type opioid receptor [1]): 400 nM | Emax (Mu-type opioid receptor [2]; filed as agonist): 54.5%

Cc1ccc2c(Cl)c(C(=O)NCCc3ccccc3Cl)sc2c1
EC50 (Mu-type opioid receptor [1]): > 10000 nM | Emax (Mu-type opioid receptor [2]): < 20%

CN(C)C(CNC(=O)c1cc2ccccc2s1)c1cccc(Cl)c1 (centres undefined)
EC50 (Mu-type opioid receptor [1]): 2310 nM | Emax (Mu-type opioid receptor [2]; filed as agonist): 130%

CN(C)C(CNC(=O)c1cc2ccccc2s1)c1cccc(F)c1 (centres undefined)
EC50 (Mu-type opioid receptor [1]): 1490 nM | Emax (Mu-type opioid receptor [2]; filed as agonist): 106%

CN(C)C(CNC(=O)c1cc2ccccc2s1)c1ccccc1 (centres undefined)
EC50 (Mu-type opioid receptor [1]): 3860 nM | Emax (Mu-type opioid receptor [2]; filed as agonist): 99.5%

CN1CCc2ccccc2C1CNC(=O)c1ccc(Cl)c(Cl)c1 (centres undefined)
EC50 (Mu-type opioid receptor [1]): 0.276 nM | Emax (Mu-type opioid receptor [2]; filed as agonist): 100%

Cc1ccc(C(CNC(=O)c2cc3ccccc3s2)N(C)C)cc1 (centres undefined)
Activity (Mus musculus [8]): Active | EC50 (Mu-type opioid receptor [1]): 8170 nM | Emax (Mu-type opioid receptor [2]; filed as agonist): 114% | Ki (Mu-type opioid receptor [9]): 0.3 nM | Ki [10]: > 1 nM | Ki (Nociceptin receptor [11]): 650 nM | EC50 (Mu-type opioid receptor [12]): 0.23 nM | EC50 (Nociceptin receptor [13]): 22 nM | EC50 [14]: 2.13 nM | EC50 (Mu-type opioid receptor [15]): 30 nM | EC50 (Nociceptin receptor [16]): 44800 nM | EC50 [17]: > 10000 nM | Ratio EC50 (Nociceptin receptor [18]): 2200 | Ratio EC50 [19]: 233 | Activity (Mu-type opioid receptor [20]): Active | Activity (Nociceptin receptor [21]): inactive | Activity [22]: inactive | concentration at 5 min [23]: 191 ng/mL | concentration at 1 h [24]: 252 ng/mL | concentration at 5 min [25]: 1110 ng/mL | concentration at 1 h [26]: 2030 ng/mL | concentration at 5 min [27]: 515 ng/mL | concentration at 1 h [28]: 936 ng/mL | Activity (Mus musculus [29]): Dose-Dependent Effect | ED50 (Mus musculus [29]): 127 mg/kg | Activity (Mus musculus [30]): Active | Activity (Mus musculus [31]): Active | Activity (Mus musculus [32]): Active | Activity (Mus musculus [33]): Active | Activity (Mus musculus [34]): Active | Activity (Mus musculus [6]): Active | Activity (Mus musculus [35]): Active | Activity (Mus musculus [36]): Active | Activity (Mus musculus [37]): Active | Activity (Mus musculus [38]): Active | Activity (Mus musculus [39]): Active

CN(C)C(CNC(=O)c1sc2ccccc2c1Cl)c1ccccc1Cl (centres undefined)
EC50 (Mu-type opioid receptor [1]): 360 nM | Emax (Mu-type opioid receptor [2]; filed as agonist): 93.8%

CN(C)C(CNC(=O)c1cc2ccccc2s1)C1CCCCC1 (centres undefined)
EC50 (Mu-type opioid receptor [1]): 11100 nM | Emax (Mu-type opioid receptor [2]; filed as agonist): 91%
